System: cancer cells
Assay: MTT cytotoxic assay of esterification products (Cytotoxicity activity)
Type: cell-based, human
Conditions: E4A esterified with Acetyl chloride (Acy = Acetyl), compounds isolated with HPLC
Procedure, shortened: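 Cytotoxicity was read by MTT (Carmichael method, modified), with cells seeded 24 h ahead of treatment. Sixteen human cancer lines spanning bone, lung, bladder, ovary, colon, pancreas, prostate, skin, mouth, kidney, breast, liver, brain, leukemia and cervix were used. Test samples were acyl chloride esterification products of triterpenes, as mixtures or HPLC-purified compounds.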

| Compound | Cytotoxicity activity |
| --- | --- |
| CC(=O)OCC12C(O)CC3(C)C(=CCC4C5(C)CCC(OC(C)=O)C(C)(CO)C5CCC43C)C1CC(C)(C)C(O)C2O (stereo not drawn) [Compound H27] | moderate |
| CC(=O)OCC12C(OC(C)=O)CC3(C)C(=CCC4C5(C)CCC(O)C(C)(CO)C5CCC43C)C1CC(C)(C)C(O)C2O (stereo not drawn) [Compound H28] | moderate |
| CC(=O)OCC1(C)C(O)CCC2(C)C1CCC1(C)C2CC=C2C3CC(C)(C)C(OC(C)=O)C(O)C3(CO)C(O)CC21C (stereo not drawn) [Compound H29] | moderate |
| CC(=O)OCC1(C)C(O)CCC2(C)C1CCC1(C)C2CC=C2C3CC(C)(C)C(O)C(OC(C)=O)C3(CO)C(O)CC21C (stereo not drawn) [Compound H30] | moderate |
| CC(=O)OCC1(C)C(OC(C)=O)CCC2(C)C1CCC1(C)C2CC=C2C3CC(C)(C)C(O)C(O)C3(CO)C(O)CC21C (stereo not drawn) [Compound H31] | moderate |
| CC(=O)OCC1(C)C(O)CCC2(C)C1CCC1(C)C2CC=C2C3CC(C)(C)C(O)C(O)C3(CO)C(OC(C)=O)CC21C (stereo not drawn) [Compound H32] | moderate |

Same assay, conditions: E4A esterified with Cinnamoyl chloride (Cin = Cinnamoyl), compounds isolated with HPLC

| Compound | Cytotoxicity activity |
| --- | --- |
| CC1(C)CC2C3=CCC4C5(C)CCC(O)C(C)(COC(=O)C=Cc6ccccc6)C5CCC4(C)C3(C)CC(O)C2(CO)C(O)C1O (stereo not drawn) [Compound J1] | moderate |
| CC1(C)CC2C3=CCC4C5(C)CCC(O)C(C)(CO)C5CCC4(C)C3(C)CC(O)C2(COC(=O)C=Cc2ccccc2)C(O)C1O (stereo not drawn) [Compound J2] | moderate |
| CC1(C)CC2C3=CCC4C5(C)CCC(O)C(C)(COC(=O)C=Cc6ccccc6)C5CCC4(C)C3(C)CC(O)C2(COC(=O)C=Cc2ccccc2)C(O)C1O (stereo not drawn) [Compound J3] | strong |
| CC1(C)CC2C3=CCC4C5(C)CCC(O)C(C)(COC(=O)C=Cc6ccccc6)C5CCC4(C)C3(C)CC(O)C2(COC(=O)C=Cc2ccccc2)C(O)C1OC(=O)C=Cc1ccccc1 (stereo not drawn) [Compound J4] | moderate |
| CC1(C)CC2C3=CCC4C5(C)CCC(O)C(C)(COC(=O)C=Cc6ccccc6)C5CCC4(C)C3(C)CC(O)C2(COC(=O)C=Cc2ccccc2)C(OC(=O)C=Cc2ccccc2)C1O (stereo not drawn) [Compound J5] | moderate |
| CC1(C)CC2C3=CCC4C5(C)CCC(OC(=O)C=Cc6ccccc6)C(C)(COC(=O)C=Cc6ccccc6)C5CCC4(C)C3(C)CC(O)C2(COC(=O)C=Cc2ccccc2)C(O)C1O (stereo not drawn) [Compound J6] | moderate |
| CC1(C)CC2C3=CCC4C5(C)CCC(O)C(C)(COC(=O)C=Cc6ccccc6)C5CCC4(C)C3(C)CC(OC(=O)C=Cc3ccccc3)C2(COC(=O)C=Cc2ccccc2)C(O)C1O (stereo not drawn) [Compound J7] | moderate |
| CC1(C)CC2C3=CCC4C5(C)CCC(O)C(C)(COC(=O)C=Cc6ccccc6)C5CCC4(C)C3(C)CC(O)C2(COC(=O)C=Cc2ccccc2)C(OC(=O)C=Cc2ccccc2)C1OC(=O)C=Cc1ccccc1 (stereo not drawn) [Compound J8] | weak |
| CC1(C)CC2C3=CCC4C5(C)CCC(OC(=O)C=Cc6ccccc6)C(C)(COC(=O)C=Cc6ccccc6)C5CCC4(C)C3(C)CC(O)C2(COC(=O)C=Cc2ccccc2)C(OC(=O)C=Cc2ccccc2)C1O (stereo not drawn) [Compound J9] | weak |
| CC1(C)CC2C3=CCC4C5(C)CCC(OC(=O)C=Cc6ccccc6)C(C)(COC(=O)C=Cc6ccccc6)C5CCC4(C)C3(C)CC(OC(=O)C=Cc3ccccc3)C2(COC(=O)C=Cc2ccccc2)C(O)C1O (stereo not drawn) [Compound J10] | weak |

Same assay, conditions: E4A esterified with Crotonoyl chloride (Cro = Crotonoyl), compounds isolated with HPLC

| Compound | Cytotoxicity activity |
| --- | --- |
| CC=CC(=O)OCC1(C)C(O)CCC2(C)C1CCC1(C)C2CC=C2C3CC(C)(C)C(O)C(O)C3(CO)C(O)CC21C (stereo not drawn) [Compound I1] | moderate |
| CC=CC(=O)OCC12C(O)CC3(C)C(=CCC4C5(C)CCC(O)C(C)(CO)C5CCC43C)C1CC(C)(C)C(O)C2O (stereo not drawn) [Compound I2] | moderate |
| CC=CC(=O)OCC1(C)C(O)CCC2(C)C1CCC1(C)C2CC=C2C3CC(C)(C)C(O)C(O)C3(COC(=O)C=CC)C(O)CC21C (stereo not drawn) [Compound I3] | strong |
| CC=CC(=O)OCC1(C)C(O)CCC2(C)C1CCC1(C)C2CC=C2C3CC(C)(C)C(OC(=O)C=CC)C(O)C3(COC(=O)C=CC)C(O)CC21C (stereo not drawn) [Compound I4] | moderate |
| CC=CC(=O)OCC1(C)C(O)CCC2(C)C1CCC1(C)C2CC=C2C3CC(C)(C)C(O)C(OC(=O)C=CC)C3(COC(=O)C=CC)C(O)CC21C (stereo not drawn) [Compound I5] | moderate |
| CC=CC(=O)OCC1(C)C(OC(=O)C=CC)CCC2(C)C1CCC1(C)C2CC=C2C3CC(C)(C)C(O)C(O)C3(COC(=O)C=CC)C(O)CC21C (stereo not drawn) [Compound I6] | moderate |
| CC=CC(=O)OCC1(C)C(O)CCC2(C)C1CCC1(C)C2CC=C2C3CC(C)(C)C(O)C(O)C3(COC(=O)C=CC)C(OC(=O)C=CC)CC21C (stereo not drawn) [Compound I7] | moderate |
| CC=CC(=O)OCC1(C)C(O)CCC2(C)C1CCC1(C)C2CC=C2C3CC(C)(C)C(OC(=O)C=CC)C(OC(=O)C=CC)C3(COC(=O)C=CC)C(O)CC21C (stereo not drawn) [Compound I8] | weak |
| CC=CC(=O)OCC1(C)C(OC(=O)C=CC)CCC2(C)C1CCC1(C)C2CC=C2C3CC(C)(C)C(O)C(OC(=O)C=CC)C3(COC(=O)C=CC)C(O)CC21C (stereo not drawn) [Compound I9] | weak |
| CC=CC(=O)OCC1(C)C(OC(=O)C=CC)CCC2(C)C1CCC1(C)C2CC=C2C3CC(C)(C)C(O)C(O)C3(COC(=O)C=CC)C(OC(=O)C=CC)CC21C (stereo not drawn) [Compound I10] | weak |
| CC=CC(=O)OCC1(C)C(OC(=O)C=CC)CCC2(C)C1CCC1(C)C2CC=C2C3CC(C)(C)C(OC(=O)C=CC)C(O)C3(COC(=O)C=CC)C(O)CC21C (stereo not drawn) [Compound I11] | weak |
| CC=CC(=O)OCC1(C)C(O)CCC2(C)C1CCC1(C)C2CC=C2C3CC(C)(C)C(O)C(OC(=O)C=CC)C3(COC(=O)C=CC)C(OC(=O)C=CC)CC21C (stereo not drawn) [Compound I12] | weak |
| CC=CC(=O)OCC1(C)C(O)CCC2(C)C1CCC1(C)C2CC=C2C3CC(C)(C)C(OC(=O)C=CC)C(O)C3(COC(=O)C=CC)C(OC(=O)C=CC)CC21C (stereo not drawn) [Compound I13] | weak |
| CC=CC(=O)OCC1(C)C(OC(=O)C=CC)CCC2(C)C1CCC1(C)C2CC=C2C3CC(C)(C)C(O)C(OC(=O)C=CC)C3(COC(=O)C=CC)C(O)CC21C (stereo not drawn) [Compound I14] | weak |
| CC=CC(=O)OCC1(C)C(OC(=O)C=CC)CCC2(C)C1CCC1(C)C2CC=C2C3CC(C)(C)C(OC(=O)C=CC)C(OC(=O)C=CC)C3(COC(=O)C=CC)C(O)CC21C (stereo not drawn) [Compound I15] | weak |
| CC=CC(=O)OCC1(C)C(O)CCC2(C)C1CCC1(C)C2CC=C2C3CC(C)(C)C(OC(=O)C=CC)C(OC(=O)C=CC)C3(COC(=O)C=CC)C(OC(=O)C=CC)CC21C (stereo not drawn) [Compound I16] | weak |

| Compound | Cytotoxicity activity |
| --- | --- |
| CC=CC(=O)OCC1(C)C(OC(=O)C=CC)CCC2(C)C1CCC1(C)C2CC=C2C3CC(C)(C)C(OC(=O)C=CC)C(O)C3(COC(=O)C=CC)C(OC(=O)C=CC)CC21C (stereo not drawn) [Compound I17] | weak |
| CC=CC(=O)OCC1(C)C(OC(=O)C=CC)CCC2(C)C1CCC1(C)C2CC=C2C3CC(C)(C)C(O)C(OC(=O)C=CC)C3(COC(=O)C=CC)C(OC(=O)C=CC)CC21C (stereo not drawn) [Compound I18] | weak |
| CC=CC(=O)OCC1(C)C(OC(=O)C=CC)CCC2(C)C1CCC1(C)C2CC=C2C3CC(C)(C)C(OC(=O)C=CC)C(OC(=O)C=CC)C3(COC(=O)C=CC)C(OC(=O)C=CC)CC21C (stereo not drawn) [Compound I19] | none |
| CC=CC(=O)OCC12C(O)CC3(C)C(=CCC4C5(C)CCC(O)C(C)(CO)C5CCC43C)C1CC(C)(C)C(OC(=O)C=CC)C2OC(=O)C=CC (stereo not drawn) [Compound I20] | moderate |
| CC=CC(=O)OCC1(C)C(O)CCC2(C)C1CCC1(C)C2CC=C2C3CC(C)(C)C(OC(=O)C=CC)C(OC(=O)C=CC)C3(CO)C(O)CC21C (stereo not drawn) [Compound I21] | moderate |
| CC=CC(=O)OC1C(OC(=O)C=CC)C2(CO)C(OC(=O)C=CC)CC3(C)C(=CCC4C5(C)CCC(O)C(C)(CO)C5CCC43C)C2CC1(C)C (stereo not drawn) [Compound I22] | moderate |
| CC=CC(=O)OC1C(OC(=O)C=CC)C2(CO)C(O)CC3(C)C(=CCC4C5(C)CCC(OC(=O)C=CC)C(C)(CO)C5CCC43C)C2CC1(C)C (stereo not drawn) [Compound I23] | moderate |
| CC=CC(=O)OC1C(OC(=O)C=CC)C2(CO)C(O)CC3(C)C(=CCC4C5(C)CCC(O)C(C)(CO)C5CCC43C)C2CC1(C)C (stereo not drawn) [Compound I24] | moderate |
| CC=CC(=O)OCC12C(O)CC3(C)C(=CCC4C5(C)CCC(O)C(C)(CO)C5CCC43C)C1CC(C)(C)C(OC(=O)C=CC)C2O (stereo not drawn) [Compound I25] | moderate |
| CC=CC(=O)OCC12C(O)CC3(C)C(=CCC4C5(C)CCC(O)C(C)(CO)C5CCC43C)C1CC(C)(C)C(O)C2OC(=O)C=CC (stereo not drawn) [Compound I26] | moderate |
| CC=CC(=O)OCC12C(O)CC3(C)C(=CCC4C5(C)CCC(OC(=O)C=CC)C(C)(CO)C5CCC43C)C1CC(C)(C)C(O)C2O (stereo not drawn) [Compound I27] | moderate |
| CC=CC(=O)OCC12C(OC(=O)C=CC)CC3(C)C(=CCC4C5(C)CCC(O)C(C)(CO)C5CCC43C)C1CC(C)(C)C(O)C2O (stereo not drawn) [Compound I28] | moderate |
| CC=CC(=O)OCC1(C)C(O)CCC2(C)C1CCC1(C)C2CC=C2C3CC(C)(C)C(OC(=O)C=CC)C(O)C3(CO)C(O)CC21C (stereo not drawn) [Compound I29] | moderate |
| CC=CC(=O)OCC1(C)C(O)CCC2(C)C1CCC1(C)C2CC=C2C3CC(C)(C)C(O)C(OC(=O)C=CC)C3(CO)C(O)CC21C (stereo not drawn) [Compound I30] | moderate |
| CC=CC(=O)OCC1(C)C(OC(=O)C=CC)CCC2(C)C1CCC1(C)C2CC=C2C3CC(C)(C)C(O)C(O)C3(CO)C(O)CC21C (stereo not drawn) [Compound I31] | moderate |
| CC=CC(=O)OCC1(C)C(O)CCC2(C)C1CCC1(C)C2CC=C2C3CC(C)(C)C(O)C(O)C3(CO)C(OC(=O)C=CC)CC21C (stereo not drawn) [Compound I32] | moderate |

Source: patent US20230340012A1, “NATURAL AND SYNTHETIC COMPOUNDS FOR TREATING CANCER AND OTHER DISEASES” (PACIFIC ARROW LIMITED, priority 2009, published 2023)
